Inhibition data for three compounds are collected here from ChEMBL document CHEMBL3774364, “Synthesis of N-cyano-substituted sulfilimine and sulfoximine derivatives of S0859 and their biological evaluation as sodium bicarbonate co-transport inhibitors” (Medchemcomm, 2015).

The target in assay [1] is T1, Sodium bicarbonate cotransporter 3 (Homo sapiens) (UniProt Q9Y6M7).
T1 sequence (whole entry): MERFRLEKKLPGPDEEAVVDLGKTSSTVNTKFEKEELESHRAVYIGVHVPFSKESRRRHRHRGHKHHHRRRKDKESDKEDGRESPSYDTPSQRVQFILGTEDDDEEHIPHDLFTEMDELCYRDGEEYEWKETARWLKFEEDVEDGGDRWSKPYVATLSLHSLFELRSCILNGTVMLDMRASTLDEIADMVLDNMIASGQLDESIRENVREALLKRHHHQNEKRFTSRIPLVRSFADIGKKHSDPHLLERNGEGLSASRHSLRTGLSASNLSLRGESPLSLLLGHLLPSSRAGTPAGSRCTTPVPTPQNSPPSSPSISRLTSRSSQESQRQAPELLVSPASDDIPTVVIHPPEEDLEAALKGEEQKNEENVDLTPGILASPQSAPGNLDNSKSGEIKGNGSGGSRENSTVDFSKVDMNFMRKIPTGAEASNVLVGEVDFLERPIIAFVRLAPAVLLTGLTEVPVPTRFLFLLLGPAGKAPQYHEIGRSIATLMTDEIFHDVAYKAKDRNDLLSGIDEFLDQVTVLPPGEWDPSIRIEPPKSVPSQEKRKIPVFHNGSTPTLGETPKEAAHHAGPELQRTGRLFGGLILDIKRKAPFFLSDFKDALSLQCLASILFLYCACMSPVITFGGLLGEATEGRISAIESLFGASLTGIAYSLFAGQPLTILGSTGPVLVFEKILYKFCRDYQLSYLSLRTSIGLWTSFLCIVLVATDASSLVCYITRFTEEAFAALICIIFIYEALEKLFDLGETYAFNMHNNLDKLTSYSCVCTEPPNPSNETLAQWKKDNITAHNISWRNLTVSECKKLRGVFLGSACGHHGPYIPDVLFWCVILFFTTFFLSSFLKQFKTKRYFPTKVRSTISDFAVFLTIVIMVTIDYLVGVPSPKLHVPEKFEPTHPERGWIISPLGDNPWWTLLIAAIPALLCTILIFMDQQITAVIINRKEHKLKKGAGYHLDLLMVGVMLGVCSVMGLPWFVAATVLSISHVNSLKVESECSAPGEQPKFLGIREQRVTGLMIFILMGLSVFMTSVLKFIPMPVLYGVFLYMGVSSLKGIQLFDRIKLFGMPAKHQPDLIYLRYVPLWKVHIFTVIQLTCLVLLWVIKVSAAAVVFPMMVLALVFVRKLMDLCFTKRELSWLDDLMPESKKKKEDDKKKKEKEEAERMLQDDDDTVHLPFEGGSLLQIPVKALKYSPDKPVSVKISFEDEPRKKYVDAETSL
The assay can be described thus: Inhibition of NBCn1 in human MCF7 cells assessed as decrease in Na(+) -dependent pHi recovery rate at 30 uM. The format is cell-based.

Assay [2] has as its target T2, Sodium bicarbonate cotransporter 3 (Mus musculus) (UniProt Q8BTY2).
T2 sequence (whole entry): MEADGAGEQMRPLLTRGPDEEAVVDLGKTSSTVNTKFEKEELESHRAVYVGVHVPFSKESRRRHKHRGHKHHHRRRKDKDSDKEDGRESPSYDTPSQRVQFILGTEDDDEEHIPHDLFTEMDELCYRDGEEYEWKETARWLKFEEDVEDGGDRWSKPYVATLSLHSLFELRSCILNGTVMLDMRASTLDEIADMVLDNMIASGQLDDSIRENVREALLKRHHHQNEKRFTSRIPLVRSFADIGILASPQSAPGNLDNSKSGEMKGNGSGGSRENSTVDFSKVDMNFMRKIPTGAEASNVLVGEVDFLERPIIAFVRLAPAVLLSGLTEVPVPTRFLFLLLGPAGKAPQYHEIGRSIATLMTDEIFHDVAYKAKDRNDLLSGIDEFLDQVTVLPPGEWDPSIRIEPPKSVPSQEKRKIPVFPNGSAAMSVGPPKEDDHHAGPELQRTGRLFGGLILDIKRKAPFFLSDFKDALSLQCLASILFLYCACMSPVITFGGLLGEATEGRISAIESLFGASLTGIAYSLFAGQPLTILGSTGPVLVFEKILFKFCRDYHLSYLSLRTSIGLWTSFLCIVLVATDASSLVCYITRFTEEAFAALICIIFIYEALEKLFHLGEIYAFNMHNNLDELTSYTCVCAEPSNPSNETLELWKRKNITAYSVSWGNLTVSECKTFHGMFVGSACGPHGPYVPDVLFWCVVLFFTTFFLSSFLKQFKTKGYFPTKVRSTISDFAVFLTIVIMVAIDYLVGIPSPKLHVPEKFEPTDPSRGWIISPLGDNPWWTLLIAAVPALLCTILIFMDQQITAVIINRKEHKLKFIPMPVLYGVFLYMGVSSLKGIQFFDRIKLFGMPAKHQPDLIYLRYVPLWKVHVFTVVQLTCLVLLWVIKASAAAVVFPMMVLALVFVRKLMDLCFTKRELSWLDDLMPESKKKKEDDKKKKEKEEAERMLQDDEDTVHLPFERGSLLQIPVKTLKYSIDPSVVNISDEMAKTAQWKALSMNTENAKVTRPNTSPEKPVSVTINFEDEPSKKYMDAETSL
The assay can be described thus: Inhibition of NBCn1 in epithelial organoids from mouse ErbB2-overexpressing breast cancer tissue assessed as Na(+) -dependent pHi recovery rate at 30 uM.

Each structure is given as a SMILES string. Calls of active or inactive are those of the source. No cut-off for these calls is given here.

Broadly, the inhibition is the percentage by which the read-out fell short of the control. For `Cc1ccc(CN(Cc2ccc(-c3ccccc3/S(C)=N/C#N)cc2)C(=O)c2ccccc2Cl)cc1` (stereo unspecified), the inhibition result in assay [1] and in assay [2] was “inactive” in each case.
As for `Cc1ccc(CN(Cc2ccc(-c3ccccc3S(C)(=O)=NC#N)cc2)C(=O)c2ccccc2Cl)cc1` (stereo unspecified), the inhibition result in assay [1] and in assay [2] was “inactive” throughout.
Turning to `Cc1ccc(CN(Cc2ccc(-c3ccccc3S(=O)(=O)NC#N)cc2)C(=O)c2ccccc2Cl)cc1`, the inhibition in assay [1] was determined as 45%. Moreover, the inhibition result in assay [2] is “inactive”.
